In article PMC9104013, “Role of Polyamine-Induced Dimerization of Antizyme in Its Cellular Functions” (International Journal of Molecular Sciences, 2022):
Read-outs that look alike come from different tables or passages of the source.

What was measured:
mouse OAZ1 (mOAZ1) = target: T1, mouse OAZ1 (mOAZ1) (Mus musculus, UniProt P54369); test: Isothermal titration calorimetry of polyamines binding to mOAZ1; details: for ΔH (enthalpy variation) / Ka (affinity constant): pH 7.5; for ΔH (enthalpy variation): SD did not exceed ±20%; for Ka (affinity constant): SD did not exceed ±25%; for TΔS (entropy variation): calculated from TΔS = ΔH + RTlnKa; for Binding to mOAZ1: under the conditions used
T1 construct: Full-length mOAZ1 protein was successfully produced in E. coli; made in house; host or cells: Escherichia coli Rosetta (DE3)
T1 sequence (P54369 whole entry): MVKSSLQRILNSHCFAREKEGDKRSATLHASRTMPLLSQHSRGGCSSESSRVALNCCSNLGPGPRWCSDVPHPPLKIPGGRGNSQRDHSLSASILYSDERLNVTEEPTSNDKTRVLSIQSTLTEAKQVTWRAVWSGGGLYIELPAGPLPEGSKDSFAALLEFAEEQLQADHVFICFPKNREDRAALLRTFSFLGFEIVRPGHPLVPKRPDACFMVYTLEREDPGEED
Method: For the precise isothermal titration calorimetry (ITC) experiments only freshly purified samples turned out to be suitable. The thermodynamic parameters of polyamines binding to OAZ1 were measured using a MicroCal iTC200 instrument (GE Healthcare, Chicago, IL, USA) as described elsewhere. Experiments were carried out at 31 °C in buffer containing 25 mM potassium phosphate, pH 7.5; 150 mM KCl; 25% (v/v) glycerol; 1 mM 2-mercaptoethanol; and 1 mM PMSF. Aliquots (2.5 μL) of ligands were injected into a 0.2 mL cell containing the protein solution to achieve a complete binding isotherm. Protein and ligand concentrations were 20 μM and 200 μM, respectively. The heat of dilution was measured by injection of the ligand into the buffer solution or by additional injections of ligand after saturation; the values obtained were subtracted from the heat of reaction to obtain the effective heat of binding. The resulting titration curves were fitted using the MicroCal Origin software, assuming one set of binding sites. Affinity constants (Ka) and enthalpy variations (ΔH) were determined, and the entropy variations (ΔS) were calculated from the equation: TΔS = ΔH + RTlnKa.

[1] = tested on: +1 frameshifting of eukaryotic OAZ1 mRNA; test: Bicistronic β-galactosidase/firefly luciferase +1 frameshift reporter assay; format: cell-based, S. cerevisiae IS532/44d
Source text: For this purpose, the earlier developed frameshift reporter system, which includes quadruple S. cerevisiae mutant strain IS532/44d, unable to synthesize and degrade polyamines due to deletion of genes FMS1, SPE1, SPE2, and PAA1, and the plasmids pAC98T-OAZ1-FS and pAC98T-OAZ1-Cont were used. Each of these plasmids bears the reporter gene encoding β-galactosidase and firefly luciferase gene fused with the fragment of eukaryotic OAZ1 containing frameshift site. The plasmid pAC98T-OAZ1-FS contains native eukaryotic OAZ1 fragment, so the efficiency of luciferase synthesis and enzymatic activity depend on the +1 frameshift event. The plasmid pAC98T-OAZ1-Cont contains the eukaryotic OAZ1 fragment with […] replaced by TGG tryptophan codon that enables constitutive synthesis of both β-galactosidase and luciferase whose activity is taken as 100%. Bicistronic assays for frameshifting were performed as described earlier with the following modifications. Yeast transformants of IS532/44d strain were grown on agar plates with the synthetic media containing 0.67% (w/v) Yeast Nitrogen Base without amino acids (Sigma), 2% (w/v) glucose, 2% (w/v) agar, mixture of 19 amino acids without leucine (2 mg/mL each), and adenine (2 mg/mL) at 30 °C for 5–7 days. Then, colonies of yeast transformants were grown in the synthetic media lacking leucine and polyamines for two days. Yeast cultures were diluted to OD600 = 0.1 in 5 mL of synthetic media lacking leucine and supplemented with either Spd, 1-MeSpd, 2-MeSpd, or 3-MeSpd, each at final concentrations of 0.25, 0.5, 1, 2, and 4 mM. Yeast cultures were grown to log phase (OD600 = 0.8–1.4) at 30 °C and harvested by centrifugation, and cell pellets were washed three times with water. Cell pellets were resuspended in 500 μL of buffer containing 60 mM NaH2PO4, 40 mM Na2HPO4, 10 mM KCl, 1 mM MgSO4, 50 mM 2-mercaptoethanol, and 10% glycerol and lysed by vortexing with acid-washed glass beads (Sigma). The lysates were centrifuged (15,000× g, 10 min, 4 °C), and the supernatants were used for β-galactosidase and firefly luciferase reporter gene assays. β-Galactosidase activity was analyzed using ο-nitrophenyl-β-D-galactopyranoside (Sigma) as the substrate in accordance with published protocol. Activity of firefly luciferase was analyzed in 96-well plates using Luciferase Assay System (Promega). Frameshift frequencies were calculated as described.

[2] = tested on: 72-mer-2'-O-Me-oligoribonucleotide L-OM, containing the +1 frameshift site, hairpin and pseudoknot of the mOAZ1 mRNA; test: RNA melting point (UV thermal denaturation); format: binding, mouse; details: for Tm: 1 μM L-OM, 50 mM Tris-HCl pH 7.5, 50 mM NaCl
Method: UV thermal denaturation data were obtained on a Hitachi U-2900 spectrophotometer equipped with a Peltier temperature controller. The concentration of model 72-mer-2′-O-Me-oligoribonucleotide L-OM, containing the +1 frameshift site, hairpin, and pseudoknot of the mOAZ1 mRNA was 1 µM. Samples were dissolved in 50 mM Tris-HCl, pH 7.5 and 50 mM NaCl buffer. Concentration of oligonucleotide was determined after quantitating the samples by UV absorbance at λ = 260 nm. Samples were heated to 90 °C for 10 min then cooled slowly to room temperature and stored at 5 °C for at least 18 h before the measurements were performed. Denaturation curves were acquired at 260 nm for the duplexes at a rate of 0.5 °C/min, within a range of 30–90 °C. The Tm values were determined from polynomial fitting of the observed curves and taken as the temperatures corresponding to half-dissociation of complex. The first derivative of absorption with respect to temperature, dA/dT, of the melting curve was computer-generated by the GraphPad Prism 7.0 software and used for the determining of Tm.

[3] = tested on: spermidine/spermine-N^1-acetyltransferase (SSAT); parameters: method as in PMID 21639123; details: cited from earlier work
[4] = tested on: spermine synthase (SpmSy); parameters: method as in PMID 21639123; details: cited from earlier work
[5] = ITC, read-out: Kd of complex with mOAZ1
[6] = calculated as 1/Ka, no binding = not detected, Kd > 50 μM not detectable, read-out: Kd (dissociation constant)
[7] = polyamine concentration 20 μM, without polyamine 65.5±0.6

| SMILES | ΔH (enthalpy variation) (mouse OAZ1 (mOAZ1); ITC, 31 °C) | Ka (affinity constant) (mouse OAZ1 (mOAZ1); ITC, 31 °C) | Kd (mouse OAZ1 (mOAZ1); [5]) [nM] | Kd (mouse OAZ1 (mOAZ1); [6]) [nM] | TΔS (entropy variation) (mouse OAZ1 (mOAZ1)) | Frameshifting activity ([1]; 0.25 mM in medium) | Frameshifting activity ([1]; 2.0 mM and 4.0 mM in medium) | Tm [2, 7] [°C] | Tm ([2]; polyamine concentration 50 μM) [°C] | Tm ([2]; polyamine concentration 200 μM) [°C] | Substrate of SSAT [3] | Substrate of spermine synthase (SpmSy) [4] | Stoichiometry mOAZ1/Polyamine (mouse OAZ1 (mOAZ1); ITC, 31 °C, pH 7.5, 150 mM KCl, 25% glycerol, protein 20 μM, ligand 200 μM) | Binding to mOAZ1 (mouse OAZ1 (mOAZ1); ITC) | Kd (dissociation constant) (mouse OAZ1 (mOAZ1); calculated as 1/Ka, no binding = not detected, Kd > 50 μM not detectable) | Frameshifting activity ([1]; all concentrations tested (0.25-4 mM)) | Tm lower compared with Spd and the other analogues [2] |
| --- | --- | --- | --- | --- | --- | --- | --- | --- | --- | --- | --- | --- | --- | --- | --- | --- | --- |
| CC(N)CCNCCCCN (stereo not drawn) [1-MeSpd] | -2.2 kcal/mol | 540000 M⁻¹ | ~1000 | 1900 | 5.8 kcal/mol | about the same as Spd | weaker inducers of the frameshifting than Spd | 73.0±0.4 | 74.0±0.3 | 80.2±0.6 | not a substrate of SSAT | is a substrate of spermine synthase |  |  |  |  |  |
| CC(CN)CNCCCCN (stereo not drawn) [2-MeSpd] | No binding ^f | No binding ^f |  |  | No binding ^f |  |  | 70.5±0.5 | 73.4±0.4 | 77.5±0.5 | substrate of both SSAT and SpmSy | substrate of both SSAT and SpmSy | No binding ^f | not detected | No binding ^f | substantially weaker inducer of +1 frameshift event than the other compounds | 2–3 °C |
| CC(CCN)NCCCCN (stereo not drawn) [3-MeSpd] | -1.2 kcal/mol | 400000 M⁻¹ | ~1000 | 2500 | 6.6 kcal/mol |  | weaker inducers of the frameshifting than Spd | 71.9±0.5 | 75.2±0.4 | 79.4±0.5 | not a substrate of either SSAT or SpmSy | not a substrate of either SSAT or SpmSy |  |  |  |  |  |
| NCCCCNCCCN [Spd, spermidine] | -3.3 kcal/mol | 280000 M⁻¹ | ~1000 | 3600 | 4.2 kcal/mol |  |  | 73.7±0.6 | 75.3±0.4 | 79.7±1.1 |  |  |  | bound to mOAZ1 |  |  |  |
